Measured values from ChEMBL document CHEMBL1201862, “PubChem BioAssay data set” (2004).
Active and inactive are the calls of the source.

Tests used:
[1] = biological target: Glyceraldehyde-3-phosphate dehydrogenase (Homo sapiens, UniProt P04406)
[2] = cells; format: functional, cell-based
[3] = cells; format: functional, cell-based; remark: listed apart in the source
[4] = reduction of Shn3 3'UTR-driven luciferase in osteoblasts – cell-based, Clone20 osteoblasts, firefly luciferase, cherry-picked, dose response (AID 624132); format: functional;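 note: firefly luciferase luminescence from reporter carrying the Shn3 3'UTR in osteoblasts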
[5] = non-specific 3'UTR reporter inhibition in Clone20-Shn3RL – cell-based, Renilla luciferase, cherry-picked, counter-screen for Shn3 inhibitor project, dose response (AID 624133); format: functional
[6] = biological target: T1, Fatty acid synthase (Homo sapiens, UniProt P49327); test: inhibition of human FAS-TE enzyme activity – biochemical, endpoint fluorescence intensity, uHTS hits, dose response (AID 624327); format: functional;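 note: fluorescence from hydrolysis of an O-methyl fluorescein acyl ester substrate by the enzyme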
T1 sequence (P49327 whole entry): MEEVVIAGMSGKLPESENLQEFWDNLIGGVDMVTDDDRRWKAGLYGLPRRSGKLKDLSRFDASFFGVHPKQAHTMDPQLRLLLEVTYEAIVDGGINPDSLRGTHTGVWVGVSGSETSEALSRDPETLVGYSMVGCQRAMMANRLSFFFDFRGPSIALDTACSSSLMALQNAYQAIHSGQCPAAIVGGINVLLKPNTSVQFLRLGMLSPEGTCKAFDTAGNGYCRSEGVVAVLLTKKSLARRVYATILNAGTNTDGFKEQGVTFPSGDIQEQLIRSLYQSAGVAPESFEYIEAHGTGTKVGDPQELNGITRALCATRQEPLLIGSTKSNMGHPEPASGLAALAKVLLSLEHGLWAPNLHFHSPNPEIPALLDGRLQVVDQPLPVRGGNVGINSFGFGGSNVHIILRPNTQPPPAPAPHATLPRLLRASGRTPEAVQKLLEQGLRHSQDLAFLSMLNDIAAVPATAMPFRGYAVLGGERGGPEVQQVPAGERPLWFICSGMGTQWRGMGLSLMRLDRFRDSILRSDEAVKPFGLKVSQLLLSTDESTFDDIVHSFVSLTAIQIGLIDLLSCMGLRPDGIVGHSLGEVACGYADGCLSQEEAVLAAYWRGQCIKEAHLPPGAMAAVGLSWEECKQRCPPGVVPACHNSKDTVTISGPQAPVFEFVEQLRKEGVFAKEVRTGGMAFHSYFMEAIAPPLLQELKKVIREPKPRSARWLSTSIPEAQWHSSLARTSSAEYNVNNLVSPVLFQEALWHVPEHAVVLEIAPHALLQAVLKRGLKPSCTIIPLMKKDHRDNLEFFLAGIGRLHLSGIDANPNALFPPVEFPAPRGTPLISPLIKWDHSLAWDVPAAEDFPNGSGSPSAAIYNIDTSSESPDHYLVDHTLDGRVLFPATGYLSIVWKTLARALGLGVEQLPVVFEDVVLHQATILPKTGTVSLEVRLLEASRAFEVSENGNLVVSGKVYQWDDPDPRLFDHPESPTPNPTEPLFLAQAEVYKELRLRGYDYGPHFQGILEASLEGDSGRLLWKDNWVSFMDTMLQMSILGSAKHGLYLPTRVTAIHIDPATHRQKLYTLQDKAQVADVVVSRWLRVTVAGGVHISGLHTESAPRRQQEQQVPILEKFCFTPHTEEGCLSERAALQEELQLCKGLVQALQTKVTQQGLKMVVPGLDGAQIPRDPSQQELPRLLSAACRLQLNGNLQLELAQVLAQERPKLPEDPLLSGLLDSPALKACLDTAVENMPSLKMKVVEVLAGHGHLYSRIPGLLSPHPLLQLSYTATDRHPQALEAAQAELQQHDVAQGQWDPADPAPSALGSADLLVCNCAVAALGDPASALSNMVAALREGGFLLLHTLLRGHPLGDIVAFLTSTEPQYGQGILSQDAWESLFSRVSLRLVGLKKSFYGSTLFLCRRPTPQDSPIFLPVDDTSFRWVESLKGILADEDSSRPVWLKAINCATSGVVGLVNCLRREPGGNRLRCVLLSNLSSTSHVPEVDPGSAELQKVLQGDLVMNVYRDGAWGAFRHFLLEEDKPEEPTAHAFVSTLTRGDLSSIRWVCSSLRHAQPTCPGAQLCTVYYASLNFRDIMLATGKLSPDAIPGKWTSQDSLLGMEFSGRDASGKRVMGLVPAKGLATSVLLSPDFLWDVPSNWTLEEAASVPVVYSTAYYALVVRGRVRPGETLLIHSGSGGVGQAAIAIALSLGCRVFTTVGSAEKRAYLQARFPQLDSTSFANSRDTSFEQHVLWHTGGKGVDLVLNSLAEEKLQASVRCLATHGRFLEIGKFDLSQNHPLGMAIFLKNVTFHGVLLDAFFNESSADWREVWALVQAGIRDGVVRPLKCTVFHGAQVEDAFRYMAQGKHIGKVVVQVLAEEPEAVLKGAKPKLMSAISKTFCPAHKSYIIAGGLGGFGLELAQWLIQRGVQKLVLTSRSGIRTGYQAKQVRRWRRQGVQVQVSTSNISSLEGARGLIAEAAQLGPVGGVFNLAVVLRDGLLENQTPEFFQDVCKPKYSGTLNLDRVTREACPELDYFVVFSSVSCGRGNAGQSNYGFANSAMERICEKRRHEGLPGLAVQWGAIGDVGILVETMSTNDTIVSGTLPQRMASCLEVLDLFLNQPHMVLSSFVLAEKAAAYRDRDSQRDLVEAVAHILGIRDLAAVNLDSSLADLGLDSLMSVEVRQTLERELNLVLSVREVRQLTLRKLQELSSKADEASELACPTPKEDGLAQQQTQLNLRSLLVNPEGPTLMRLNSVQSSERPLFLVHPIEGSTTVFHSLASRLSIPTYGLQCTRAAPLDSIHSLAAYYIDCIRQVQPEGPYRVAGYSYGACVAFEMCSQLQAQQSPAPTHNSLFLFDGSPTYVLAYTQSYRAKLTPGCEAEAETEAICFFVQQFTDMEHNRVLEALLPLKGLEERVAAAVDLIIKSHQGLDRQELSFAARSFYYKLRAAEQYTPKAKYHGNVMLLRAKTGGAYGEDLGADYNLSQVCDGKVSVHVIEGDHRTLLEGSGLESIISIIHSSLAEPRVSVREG

[7] = biological target: T1, Fatty acid synthase; test: inhibition of human FAS-TE enzyme activity – biochemical, kinetic fluorescence intensity, dose response (AID 624326); format: functional;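 note: rate of fluorescence rise from hydrolysis of a fluorogenic O-methyl fluorescein ester substrate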
[8] = biological target: T2, Polyadenylate-binding protein 1 (Homo sapiens, UniProt P11940); test: MLLE binding blockers, Cy5 peptide tracer – biochemical, fluorescence polarization, Cy5-PAM2 peptide, secondary, miRNA deadenylation inhibitor project, dose response (AID 602260); format: functional; conditions: read-out: IC50_Mean
T2 sequence (P11940 whole entry, the tested form may be a part): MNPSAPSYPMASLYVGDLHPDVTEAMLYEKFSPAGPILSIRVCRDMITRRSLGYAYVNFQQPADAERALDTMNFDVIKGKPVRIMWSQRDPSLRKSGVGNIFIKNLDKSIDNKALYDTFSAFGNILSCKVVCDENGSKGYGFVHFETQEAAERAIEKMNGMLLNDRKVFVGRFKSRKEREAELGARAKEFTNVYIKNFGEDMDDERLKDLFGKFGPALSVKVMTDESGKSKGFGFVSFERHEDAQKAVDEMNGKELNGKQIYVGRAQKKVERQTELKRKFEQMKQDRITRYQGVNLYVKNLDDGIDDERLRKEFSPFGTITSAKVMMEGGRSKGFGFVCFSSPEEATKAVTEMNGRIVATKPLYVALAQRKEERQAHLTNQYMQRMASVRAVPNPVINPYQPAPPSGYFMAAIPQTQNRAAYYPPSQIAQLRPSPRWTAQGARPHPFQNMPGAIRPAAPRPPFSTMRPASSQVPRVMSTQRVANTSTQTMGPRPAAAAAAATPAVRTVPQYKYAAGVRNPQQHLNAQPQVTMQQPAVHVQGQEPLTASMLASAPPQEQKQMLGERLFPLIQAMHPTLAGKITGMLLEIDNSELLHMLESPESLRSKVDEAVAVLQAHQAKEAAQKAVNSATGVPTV

[9] = biological target: T2, Polyadenylate-binding protein 1; test: MLLE domain peptide-binding blockers, IC50 – biochemical, fluorescence polarization, FITC-PAM2 peptide, dose response (AID 602259); format: functional; conditions: read-out: IC50_Mean
[10] = biological target: FAD-linked sulfhydryl oxidase ALR (Homo sapiens, UniProt P55789); test: ALR-catalysed DTT oxidation blockers – biochemical, H2O2 detection, luminescence, cherry-pick, dose response (AID 493248)
Sequence of FAD-linked sulfhydryl oxidase ALR (P55789 whole entry): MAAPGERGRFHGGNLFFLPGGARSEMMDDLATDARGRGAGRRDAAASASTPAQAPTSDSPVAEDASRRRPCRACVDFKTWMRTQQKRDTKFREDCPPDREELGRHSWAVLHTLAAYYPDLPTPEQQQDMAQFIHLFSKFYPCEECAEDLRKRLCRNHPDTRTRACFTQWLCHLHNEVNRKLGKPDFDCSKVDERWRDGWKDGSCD

[11] = biological target: T3, Zinc finger protein mex-5 (Caenorhabditis elegans, UniProt Q9XUB2); test: potency of MEX-5 RNA-binding blockers – biochemical, C. elegans, fluorescence polarization, dose response (AID 1960)
T3 sequence (Q9XUB2 whole entry): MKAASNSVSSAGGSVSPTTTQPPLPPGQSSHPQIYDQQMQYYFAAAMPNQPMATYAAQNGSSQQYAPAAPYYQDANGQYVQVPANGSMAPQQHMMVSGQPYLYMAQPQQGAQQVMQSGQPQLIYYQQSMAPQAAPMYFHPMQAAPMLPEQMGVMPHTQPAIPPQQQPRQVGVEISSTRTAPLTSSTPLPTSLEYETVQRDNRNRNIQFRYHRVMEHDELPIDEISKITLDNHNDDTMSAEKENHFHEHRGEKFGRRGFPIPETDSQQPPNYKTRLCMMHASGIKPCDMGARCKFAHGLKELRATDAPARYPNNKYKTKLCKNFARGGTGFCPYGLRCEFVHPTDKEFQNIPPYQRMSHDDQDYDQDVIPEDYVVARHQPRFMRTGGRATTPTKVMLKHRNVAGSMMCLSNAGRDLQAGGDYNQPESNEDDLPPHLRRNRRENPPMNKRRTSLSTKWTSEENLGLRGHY

[12] = biological target: T4, RNA-binding protein pos-1 (Caenorhabditis elegans, UniProt G5EF15); test: disruptors of C. elegans POS-1 RNA interaction – biochemical, fluorescence polarization, dose response (AID 1964);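 note: purified POS-1 fused to maltose binding protein made in E. coli; potency of compounds blocking POS-1 binding to fluorescent RNA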
T4 sequence (G5EF15 whole entry): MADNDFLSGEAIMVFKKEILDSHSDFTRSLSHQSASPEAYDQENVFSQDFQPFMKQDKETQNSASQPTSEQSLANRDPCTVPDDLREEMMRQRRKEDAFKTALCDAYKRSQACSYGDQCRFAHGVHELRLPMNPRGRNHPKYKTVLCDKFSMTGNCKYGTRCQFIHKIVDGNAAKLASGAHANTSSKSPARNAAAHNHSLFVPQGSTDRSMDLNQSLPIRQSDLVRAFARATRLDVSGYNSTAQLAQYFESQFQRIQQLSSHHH

[13] = tested on: BJ; test: BJ-TERT fibroblast viability loss – cell-based, RAS-independent, luminescence, dose response (AID 1933); format: functional; conditions: Homo sapiens
[14] = tested on: BJ; test: cells; format: functional, cell-based; conditions: Homo sapiens
[15] = tested on: BJ; test: BJ-TERT-LT-ST fibroblast viability loss – cell-based, RAS-independent, luminescence, dose response (AID 1935); format: functional; conditions: Homo sapiens;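 note: BJ fibroblasts immortalized with TERT plus LT and ST oncogenes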
[16] = DRD fibroblast viability loss – cell-based, non-viral oncogenic, luminescence, dose response (AID 1934); format: functional; conditions: Homo sapiens
[17] = biological target: Glucose-6-phosphate 1-dehydrogenase (Homo sapiens, UniProt P11413); test: inhibition of Homo sapiens G6PD, dose series – biochemical, fluorescence, selectivity assay for P. falciparum G6PD inhibitor project, dose response (AID 504792); format: functional
Sequence of Glucose-6-phosphate 1-dehydrogenase (P11413 whole entry): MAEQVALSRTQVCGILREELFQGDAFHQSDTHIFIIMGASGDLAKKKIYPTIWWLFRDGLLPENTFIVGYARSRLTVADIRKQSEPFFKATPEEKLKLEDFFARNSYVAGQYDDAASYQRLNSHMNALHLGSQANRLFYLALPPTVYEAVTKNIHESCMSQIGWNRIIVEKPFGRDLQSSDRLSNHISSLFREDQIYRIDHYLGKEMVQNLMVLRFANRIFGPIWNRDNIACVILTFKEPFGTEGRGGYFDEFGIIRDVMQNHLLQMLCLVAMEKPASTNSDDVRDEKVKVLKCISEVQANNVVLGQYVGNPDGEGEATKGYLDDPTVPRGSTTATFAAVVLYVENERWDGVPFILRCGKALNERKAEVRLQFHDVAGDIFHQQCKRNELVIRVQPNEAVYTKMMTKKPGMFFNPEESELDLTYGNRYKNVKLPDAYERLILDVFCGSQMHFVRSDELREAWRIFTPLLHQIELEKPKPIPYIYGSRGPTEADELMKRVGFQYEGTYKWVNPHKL

[18] = biological target: Nonstructural protein 1 (Influenza A virus, UniProt Q194T2); format: functional, Influenza A virus (A/California/07/2009(H1N1))
Sequence of Nonstructural protein 1 (Q194T2 whole entry): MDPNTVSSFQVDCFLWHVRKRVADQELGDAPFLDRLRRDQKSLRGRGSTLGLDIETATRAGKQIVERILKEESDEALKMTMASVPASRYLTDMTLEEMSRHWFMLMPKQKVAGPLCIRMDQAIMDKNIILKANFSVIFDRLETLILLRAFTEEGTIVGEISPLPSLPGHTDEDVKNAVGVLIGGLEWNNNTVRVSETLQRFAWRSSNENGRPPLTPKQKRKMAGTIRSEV

Sequence of Glyceraldehyde-3-phosphate dehydrogenase (P04406 whole entry): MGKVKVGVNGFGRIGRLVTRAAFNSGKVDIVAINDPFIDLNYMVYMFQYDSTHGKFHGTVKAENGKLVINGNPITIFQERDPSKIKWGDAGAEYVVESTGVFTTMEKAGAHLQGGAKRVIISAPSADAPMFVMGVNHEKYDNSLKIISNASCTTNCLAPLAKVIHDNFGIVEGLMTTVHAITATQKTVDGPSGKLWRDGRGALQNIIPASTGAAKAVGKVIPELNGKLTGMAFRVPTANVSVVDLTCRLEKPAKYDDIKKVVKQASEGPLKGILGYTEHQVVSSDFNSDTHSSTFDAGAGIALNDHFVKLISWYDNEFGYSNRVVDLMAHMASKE

## C[C@H]1CN(C2=C(Cl)C(=O)N(c3ccc(Cl)nc3)C2=O)CCN1
[1]
  IC50: > 50 µM (inconclusive)

## NC(=O)CSc1nnc2ccc(-c3ccc(Cl)cc3)nn12
[2]
  EC50: > 350 µM (not active)
[3]
  EC50: > 350 µM (not active)

## CCOC(=O)c1sc(NC(=O)CCCn2nc([N+](=O)[O-])c(Cl)c2C)c(C(=O)OCC)c1C
[4]
  AC50: 6.34 µM (active)
[5]
  AC50: 15.4 µM (active)

## O=C(COC(=O)CCc1ccccc1)Nc1cc([N+](=O)[O-])ccc1F
[6]
  IC50: 5.19 µM (active)
[7]
  IC50: 6.27 µM (active)

## ON=CN=C(S)Nc1ncc(C(F)(F)F)cc1Cl
[8]
  IC50: > 66 µM (inactive)
[9]
  IC50: > 66 µM (inactive)

## O=C(O)Cc1ccc(NCc2ccccc2Cl)cc1
[10]
  AC50: 4.81 µM (active)

## O=[N+]([O-])c1ccc(C2=Nc3cc(Cl)ccc3OC2)cc1
[11]
  EC50: > 300 µM (inconclusive)
[12]
  EC50: 90.7 µM (active)

## COc1ccc(N2CCN(C(=O)c3ccccc3N(C)S(=O)(=O)c3ccccc3)CC2)cc1
[10]
  AC50: 8.08 µM (active)

## Cc1nc(NC(=O)CCl)sc1C(=O)N(C)C
[13]
  EC50: > 150 µM (not active)
[14]
  EC50: > 150 µM (not active)
[15]
  EC50: > 150 µM (not active)
[16]
  EC50: 28.3 µM (active)

## COc1ccc(CNC(=O)c2ccc3c(c2)N(C)CCS3)cc1
[10]
  AC50: 15.4 µM (active)

## CC(C)(C)c1ccc(C(=O)N/C(=C\c2cccc([N+](=O)[O-])c2)C(=O)Nc2cccc(C(=O)O)c2)cc1
[6]
  IC50: 2.44 µM (active)
[7]
  IC50: 1.48 µM (active)

## Nc1nc(-c2ccccc2)cn1/N=C/c1cccc([N+](=O)[O-])c1
[1]
  IC50: > 100 µM (not active)

## CCOc1cc(C2C(C#N)=C(N)OC3=C2C(=O)CC(C)(C)C3)cc([N+](=O)[O-])c1O (stereo unspecified)
[11]
  EC50: > 300 µM (not active)
[12]
  EC50: > 300 µM (not active)

## COc1ccc(CC2C(=O)N(C)C(=O)N(C)C2=O)c(OC)c1
[8]
  IC50: > 66 µM (inactive)
[9]
  IC50: > 66 µM (inactive)

## Cc1cccc(NC(=O)COc2cccc3c2CCN(C)C3=O)c1C
[2]
  EC50: > 350 µM (not active)
[3]
  EC50: > 350 µM (not active)

## CCCCC1=CC2=CC(=O)C(C)(OC(=O)CC)C(=O)C2=CN1CCCCO (stereo unspecified)
[8]
  IC50: > 66 µM (inactive)
[9]
  IC50: > 66 µM (inactive)

## O=C(CNC(=O)c1cccs1)OCC(=O)c1ccc([N+](=O)[O-])cc1
[17]
  IC50: > 80 µM (inactive)

## Cn1cc(CN2CCC(C(=O)Nc3cccc(-c4cscn4)c3)CC2)cn1
[2]
  EC50: > 350 µM (not active)
[3]
  EC50: > 350 µM (not active)

## S=C(NN=Cc1ccccn1)N(Cc1ccccn1)Cc1ccccn1
[17]
  IC50: > 80 µM (inactive)
[18]
  IC50: 1.59 µM (active)

## O=C1C(Cl)=C(N2CCN(Cc3ccccc3)CC2)C(=O)N1c1cccc(C(F)(F)F)c1
[1]
  IC50: > 50 µM (inconclusive)

## COc1ccc(N/N=C(\C#N)C(=N)N2CCCCC2)cc1
[10]
  AC50: 0.077 µM (active)
